Patent US8710055B2, “Triazolylphenyl sulfonamides as serine/threonine kinase inhibitors” (Boehringer Ingelheim International GmbH, priority 2010, dated 2014)

System: SK-MEL-28 cells (B-RAF V600E mutated)
Experiment: Inhibition of the proliferation of cultivated human melanoma cells (SK-MEL-28), AlamarBlue
Type: cell-based
Conditions: 72 h incubation
Procedure: Measurement of the Inhibition of the Proliferation of Cultivated Human Melanoma Cells (SK-MEL-28, B-RAF^[…] Mutated)
For measuring the proliferation of cultivated human tumour cells, cells of the melanoma cell line SK-MEL-28 [from American Type Culture Collection (ATCC)] are cultivated in MEM medium, supplemented with 10% foetal calf serum, 2% sodium bicarbonate, 1 mM sodium pyruvate, 1% non-essential amino acids (e.g. from Cambrex, # BE13-114E) and 2 mM glutamine. SK-MEL-28 cells are placed in 96-well flat bottomed dishes in a density of 2500 cells per well in supplemented MEM medium (see above) and incubated overnight in an incubator (at 37° C. and 5% CO2). The active substances are added to the cells in different concentrations, so that a concentration range of 50 μM to 3.2 nM is covered. If necessary the initial concentration of 50 μM is changed to 10 μM or 2 μM and further dilution is carried out accordingly (up to 0.6 nM or 0.12 nM). After an incubation period of a further 72 h 20 μL AlamarBlue reagent (Serotec Ltd., # BUF012B) are added to each well and the cells are incubated for a further 3-6 h. The colour change of the AlamarBlue reagent is determined in a fluorescence spectrophotometer (e.g. Gemini, Molecular Devices). EC50 values are calculated using a software program (GraphPadPrizm).

Structure (SMILES)	EC50
CCCS(=O)(=O)Nc1ccc(F)c(-n2cc(-c3cncc(F)c3)nn2)c1F [Example I-17]	1260 nM
CCCS(=O)(=O)Nc1ccc(F)c(-n2cc(-c3cncc(N4CCN(C5CC5)CC4)c3)nn2)c1Cl [Example I-65]	32 nM
CC(C)N1CCN(c2cncc(-c3cn(-c4c(F)ccc(NS(=O)(=O)c5ccoc5)c4Cl)nn3)c2)CC1 [Example I-68]	6 nM
CCCS(=O)(=O)Nc1ccc(F)c(-n2cc(-c3ccc(N)nc3)nn2)c1F [Example I-5]	1640 nM
CCCS(=O)(=O)Nc1ccc(F)c(-n2cc(-c3cncc(OC)c3)nn2)c1Cl [Example I-75]	273 nM
CC(C)CS(=O)(=O)Nc1ccc(F)c(-n2cc(-c3cncc(N4CCN(C5CC5)CC4)c3)nn2)c1F [Example I-29]	37 nM
CCCS(=O)(=O)Nc1ccc(F)c(-n2cc(-c3cncc(Br)c3)nn2)c1F [Example I-7]	279 nM
CCN1CCN(c2cncc(-c3cn(-c4c(F)ccc(NS(=O)(=O)c5ccoc5)c4Cl)nn3)c2)CC1 [Example I-74]	5 nM
O=S(=O)(Nc1ccc(F)c(-n2cc(-c3cncc(Br)c3)nn2)c1Cl)c1ccoc1 [Example I-70]	73 nM
CCCS(=O)(=O)Nc1ccc(Cl)c(-n2cc(-c3cncc(OC)c3)nn2)c1F [Example I-39]	145 nM
COc1cncc(-c2cn(-c3c(F)ccc(NS(=O)(=O)c4cc(F)ccc4F)c3F)nn2)c1 [Example I-38]	363 nM
CC(C)S(=O)(=O)Nc1ccc(F)c(-n2cc(-c3cncc(N4CCN(CC5CC5)CC4)c3)nn2)c1F [Example I-22]	231 nM
CC(C)CS(=O)(=O)Nc1ccc(F)c(-n2cc(-c3cncc(N4CCN(C(C)(C)C)CC4)c3)nn2)c1F [Example I-27]	96 nM
CCCS(=O)(=O)Nc1ccc(F)c(-n2cc(-c3cncc(N(C)CCOC)c3)nn2)c1F [Example I-30]	1230 nM
CC(C)CS(=O)(=O)Nc1ccc(F)c(-n2cc(-c3cncc(N4CCN(C(C)C)CC4)c3)nn2)c1F [Example I-26]	98 nM
CCCS(=O)(=O)Nc1ccc(F)c(-n2cc(-c3ccc(NC(C)=O)nc3)nn2)c1F [Example I-6]	559 nM
CCS(=O)(=O)Nc1ccc(Cl)c(-n2cc(-c3cncc(OC)c3)nn2)c1F [Example I-40]	327 nM
CCCS(=O)(=O)Nc1ccc(F)c(-n2cc(-c3cncc(N4CCOCC4)c3)nn2)c1F [Example I-12]	201 nM
CCCS(=O)(=O)Nc1ccc(F)c(-n2cc(-c3cncc(N4CCN(CC5CC5)CC4)c3)nn2)c1F [Example I-10]	107 nM
CC(C)S(=O)(=O)Nc1ccc(F)c(-n2cc(-c3cncc(N4CCN(C)CC4)c3)nn2)c1F [Example I-23]	459 nM
O=S(=O)(Nc1ccc(F)c(-n2cc(-c3cncc(N4CCN(C5CC5)CC4)c3)nn2)c1F)c1ccoc1 [Example I-60]	9 nM
O=S(=O)(Nc1ccc(F)c(-n2cc(-c3cncc(Cl)c3)nn2)c1Cl)c1ccoc1 [Example I-71]	61 nM
COc1cncc(-c2cn(-c3c(F)ccc(NS(=O)(=O)c4cccnc4)c3F)nn2)c1 [Example I-42]	292 nM
CCCS(=O)(=O)Nc1ccc(F)c(-n2cc(-c3cncc(N4CCN(C5CCOC5)CC4)c3)nn2)c1F (stereo not drawn) [Example I-58]	71 nM
CCCS(=O)(=O)Nc1ccc(F)c(-n2cc(-c3cncc(N4CCN(CC)CC4)c3)nn2)c1Cl [Example I-66]	55 nM
CCCS(=O)(=O)Nc1ccc(F)c(-n2cc(-c3cncc(N4CCN(C(C)C)CC4)c3)nn2)c1Cl [Example I-63]	44 nM
CC(C)N1CCN(c2cncc(-c3cn(-c4c(F)ccc(NS(=O)(=O)C(C)C)c4F)nn3)c2)CC1 [Example I-21]	314 nM

Structure (SMILES)	EC50
COc1cncc(-c2cn(-c3c(F)ccc(NS(=O)(=O)CC4CC4)c3F)nn2)c1 [Example I-46]	480 nM
CCCS(=O)(=O)Nc1ccc(F)c(-n2cc(-c3cncc(N4CCN(C5CCC5)CC4)c3)nn2)c1F [Example I-59]	98 nM
CCCS(=O)(=O)Nc1ccc(F)c(-n2cc(-c3cncc(-n4cnc(C)c4)c3)nn2)c1F [Example I-32]	114 nM
CCCS(=O)(=O)Nc1ccc(F)c(-n2cc(-c3cncc(OC)c3)nn2)c1F [Example I-2]	216 nM
CCCS(=O)(=O)Nc1ccc(F)c(-n2cc(-c3cncc(N4CCN(C(C)(C)C)CC4)c3)nn2)c1F [Example I-9]	132 nM
CCCS(=O)(=O)Nc1ccc(F)c(-n2cc(-c3cncc(OC4CCOCC4)c3)nn2)c1F [Example I-33]	671 nM
COc1cncc(-c2cn(-c3c(F)ccc(NS(=O)(=O)CC(C)C)c3F)nn2)c1 [Example I-25]	158 nM
COc1cncc(-c2cn(-c3c(F)ccc(NS(=O)(=O)c4ccco4)c3F)nn2)c1 [Example I-47]	159 nM
O=S(=O)(Nc1ccc(F)c(-n2cc(-c3cncc(N4CCN(C5CC5)CC4)c3)nn2)c1Cl)c1ccoc1 [Example I-67]	4 nM
C#CCN1CCN(c2cncc(-c3cn(-c4c(F)ccc(NS(=O)(=O)CCC)c4F)nn3)c2)CC1 [Example I-53]	68 nM
CCCS(=O)(=O)Nc1ccc(F)c(-n2cc(-c3cnn(C)c3C)nn2)c1F [Example I-14]	1720 nM
CCCS(=O)(=O)Nc1ccc(F)c(-n2cc(-c3cncc(C)c3)nn2)c1F [Example I-4]	535 nM
CCCS(=O)(=O)Nc1ccc(F)c(-n2cc(-c3cncc(N4CCNCC4)c3)nn2)c1F [Example I-50]	493 nM
COCCS(=O)(=O)Nc1ccc(F)c(-n2cc(-c3cncc(N4CCN(C5CC5)CC4)c3)nn2)c1F [Example I-56]	675 nM
CCCS(=O)(=O)Nc1ccc(F)c(-n2cc(-c3cncc(N4CCN(C5CC5)CC4)c3)nn2)c1F [Example I-18]	75 nM
O=S(=O)(Nc1ccc(F)c(-n2cc(-c3cncc(N4CCN(CC5CC5)CC4)c3)nn2)c1Cl)c1ccoc1 [Example I-54]	7 nM
CCCS(=O)(=O)Nc1ccc(F)c(-n2cc(-c3cncc(OC(C)C)c3)nn2)c1F [Example I-34]	218 nM
CCCS(=O)(=O)Nc1ccc(F)c(-n2cc(-c3cncc(N4CCN(CC)CC4)c3)nn2)c1F [Example I-1]	113 nM
CC(C)(C)N1CCN(c2cncc(-c3cn(-c4c(F)ccc(NS(=O)(=O)c5ccoc5)c4Cl)nn3)c2)CC1 [Example I-69]	5 nM
CCCS(=O)(=O)Nc1ccc(F)c(-n2cc(-c3cncc(N4CCN(C5COC5)CC4)c3)nn2)c1F [Example I-51]	114 nM
CCCS(=O)(=O)Nc1ccc(F)c(-n2cc(-c3cncnc3)nn2)c1F [Example I-11]	506 nM
CCCS(=O)(=O)Nc1ccc(F)c(-n2cc(-c3cnc(NC4CCN(CCOC)CC4)nc3)nn2)c1F [Example I-13]	1020 nM
COc1cncc(-c2cn(-c3c(F)ccc(NS(=O)(=O)c4ccoc4)c3Cl)nn2)c1 [Example I-55]	32 nM
CCCS(=O)(=O)Nc1ccc(F)c(-n2cc(-c3cccnc3)nn2)c1F [Example I-15]	1820 nM
COc1cncc(-c2cn(-c3c(F)ccc(NS(=O)(=O)c4ccoc4)c3F)nn2)c1 [Example I-45]	24 nM
CC(C)CS(=O)(=O)Nc1ccc(F)c(-n2cc(-c3cncc(N4CCN(C)CC4)c3)nn2)c1F [Example I-24]	117 nM
CC(C)S(=O)(=O)Nc1ccc(F)c(-n2cc(-c3cncc(N4CCN(C(C)(C)C)CC4)c3)nn2)c1F [Example I-20]	245 nM
